In PubChem BioAssay AID256 (DTP/NCI, 2004):
Toxic doses and inconclusive results are not listed.

Test system: CD2F1 mice, L1210 leukemia ip, survival T/C
Test: NCI In Vivo Anticancer Drug Screen. Data for tumor model L1210 Leukemia (intraperitoneal) in CD2F1 (CDF1) mice
Conditions: endpoint: mean survival time, higher = longer survival
Outline: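 In this screen, transplantable tumors were grown in mice given either the compound or its vehicle. Results were expressed as the treated measurement relative to the control measurement.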

[1] = dose: 100.0 mg/kg/injection, schedule: Q04DX003 (ip), vehicle: saline with Tween-80
[2] = dose: 200.0 mg/kg/injection, schedule: Q04DX003 (ip), vehicle: saline with Tween-80
[3] = dose: 100.0 mg/kg/injection, schedule: Q04DX003 (ip), vehicle: saline
[4] = dose: 200.0 mg/kg/injection, schedule: Q04DX003 (ip), vehicle: saline
[5] = dose: 400.0 mg/kg/injection, schedule: Q04DX003 (ip), vehicle: saline with Tween-80

With `CC(C)CC(NC(=O)C(N)Cc1ccc(N(CCCl)CCCl)cc1)C(=O)O` (centres undefined) the T/C (dose: 1.0 mg/kg/injection, schedule: Q04DX003 (ip), vehicle: saline with Tween-80) was 106 % of control, the T/C (dose: 2.0 mg/kg/injection, schedule: Q04DX003 (ip), vehicle: saline with Tween-80) was 111 % of control and the T/C (dose: 4.0 mg/kg/injection, schedule: Q04DX003 (ip), vehicle: saline with Tween-80) was 113 % of control. For the same compound, the T/C (dose: 8.0 mg/kg/injection, schedule: Q04DX003 (ip), vehicle: saline with Tween-80) was 118 % of control, the T/C (dose: 32.0 mg/kg/injection, schedule: Q04DX003 (ip), vehicle: saline with Tween-80) was 112 % of control and the T/C (dose: 64.0 mg/kg/injection, schedule: Q04DX003 (ip), vehicle: saline with Tween-80) was 121 % of control.

With `CC12CCC3C(CCC4=CC(=O)C(C(O)(C(F)(F)F)C(F)(F)F)CC43C)C1CC(C(O)(C(F)(F)F)C(F)(F)F)C2=O` (centres undefined) the T/C (dose: 100.0 mg/kg/injection, schedule: Q01DX009 (sc), vehicle: steriod suspending solution) was 90 % of control, the T/C (dose: 200.0 mg/kg/injection, schedule: Q01DX009 (sc), vehicle: steriod suspending solution) was 95 % of control and the T/C (dose: 400.0 mg/kg/injection, schedule: Q01DX009 (sc), vehicle: steriod suspending solution) was 92 % of control.

For `CC1(CC(=O)O)NC(=O)NC1=O` (centres undefined), the T/C (dose: 100.0 mg/kg/injection, schedule: Q01DX001 (ip), vehicle: saline) was 102 % of control, the T/C (dose: 100.0 mg/kg/injection, schedule: Q04DX002 (ip), vehicle: saline with Tween-80) was 96 % of control and the T/C (dose: 200.0 mg/kg/injection, schedule: Q01DX001 (ip), vehicle: saline) was 97 % of control. The T/C (dose: 200.0 mg/kg/injection, schedule: Q04DX002 (ip), vehicle: saline with Tween-80) was 101 % of control, the T/C (dose: 400.0 mg/kg/injection, schedule: Q01DX001 (ip), vehicle: saline) was 100 % of control and the T/C (dose: 400.0 mg/kg/injection, schedule: Q04DX002 (ip), vehicle: saline with Tween-80) was 96 % of control.

`CCCCNS(=O)(=O)c1ccccc1` was tested, and the T/C [1] was 97 % of control and the T/C [2] was 96 % of control.

`CS(=O)(=O)Nc1ccc(Nc2c3ccccc3nc3cc(Cl)ccc23)cc1` was tested, and the T/C (dose: 50.0 mg/kg/injection, schedule: Q01DX009 (ip), vehicle: saline with Tween-80) was 186 % of control, the T/C [3] was 160 % of control and the T/C (dose: 133.0 mg/kg/injection, schedule: Q04DX003 (ip), vehicle: saline with Tween-80) was 114 % of control. The T/C [4] was 225 % of control.

For `Cc1ccc(OCc2c(COc3ccc(Cl)cc3)sc3ccc(Cl)cc23)cc1`, the T/C [1] was 96 % of control and the T/C [5] was 88 % of control.

`O=S(O)OS(=O)O` was tested, and the T/C (dose: 37.5 mg/kg/injection, schedule: Q01DX009 (ip), vehicle: saline) was 89 % of control, the T/C (dose: 75.0 mg/kg/injection, schedule: Q01DX009 (ip), vehicle: saline) was 91 % of control and the T/C [3] was 101 % of control. The T/C (dose: 150.0 mg/kg/injection, schedule: Q01DX009 (ip), vehicle: saline) was 93 % of control, the T/C [4] was 101 % of control and the T/C (dose: 300.0 mg/kg/injection, schedule: Q01DX009 (ip), vehicle: saline) was 91 % of control. For the same compound, the T/C (dose: 400.0 mg/kg/injection, schedule: Q04DX003 (ip), vehicle: saline) was 96 % of control.

With `CC1=CC(C)N(C(=O)c2ccc(Cl)cc2)CCN1C(=O)c1ccc(Cl)cc1` (centres undefined) the T/C [1] was 98 % of control, the T/C [2] was 102 % of control and the T/C [5] was 102 % of control.

In the case of `CC1(C)OC2C(/C=C\C(=O)c3ccccc3)OC(n3ccc(=O)[nH]c3=O)C2O1` (centres undefined), the T/C (dose: 12.5 mg/kg/injection, schedule: Q01DX005 (ip), vehicle: distilled water + Tween-80) is reported as 102 % of control, the T/C (dose: 25.0 mg/kg/injection, schedule: Q01DX005 (ip), vehicle: distilled water + Tween-80) is reported as 100 % of control and the T/C (dose: 50.0 mg/kg/injection, schedule: Q01DX005 (ip), vehicle: distilled water + Tween-80) is reported as 96 % of control. The T/C (dose: 100.0 mg/kg/injection, schedule: Q01DX005 (ip), vehicle: distilled water + Tween-80) was 103 % of control.

In the case of `Cc1nc(-c2ccccc2)[nH]c(=O)c1CCO`, the T/C [1] is reported as 100 % of control, the T/C [2] is reported as 100 % of control and the T/C [5] is reported as 111 % of control.

`CC(=O)N(C)N=Nc1ccc(F)cc1` was tested, and the T/C (dose: 25.0 mg/kg/injection, schedule: Q04DX003 (ip), vehicle: Klucel (hydroxypropylcellulose) (HPC)) was 105 % of control, the T/C (dose: 50.0 mg/kg/injection, schedule: Q04DX003 (ip), vehicle: Klucel (hydroxypropylcellulose) (HPC)) was 102 % of control and the T/C (dose: 100.0 mg/kg/injection, schedule: Q04DX003 (ip), vehicle: Klucel (hydroxypropylcellulose) (HPC)) was 105 % of control. The T/C (dose: 200.0 mg/kg/injection, schedule: Q04DX003 (ip), vehicle: Klucel (hydroxypropylcellulose) (HPC)) was 105 % of control.
